# Data from ChEMBL document CHEMBL5150060 (J Med Chem, 2022).
# The source made the active and inactive calls. No cut-off for these calls is given here.
# Columns and labels:
# [1] = Stability of compound in DMEM/DMSO/acetonitrile at pH 7.4 measured after 12 hrs by HPLC analysis; assay type: physicochemical; settings: read-out: Stability
# [2] = molecular target: T1, Histone deacetylase 1 (Homo sapiens, UniProt Q13547); experiment: Inhibition of recombinant human HDAC1 using p53 (Ac-RHKK(Acetyl)-AMC) as substrate preincubated for 5 mins followed by substrate addition and measured after 90 mins by fluorescence based analysis
# T1 sequence (Q13547 whole entry): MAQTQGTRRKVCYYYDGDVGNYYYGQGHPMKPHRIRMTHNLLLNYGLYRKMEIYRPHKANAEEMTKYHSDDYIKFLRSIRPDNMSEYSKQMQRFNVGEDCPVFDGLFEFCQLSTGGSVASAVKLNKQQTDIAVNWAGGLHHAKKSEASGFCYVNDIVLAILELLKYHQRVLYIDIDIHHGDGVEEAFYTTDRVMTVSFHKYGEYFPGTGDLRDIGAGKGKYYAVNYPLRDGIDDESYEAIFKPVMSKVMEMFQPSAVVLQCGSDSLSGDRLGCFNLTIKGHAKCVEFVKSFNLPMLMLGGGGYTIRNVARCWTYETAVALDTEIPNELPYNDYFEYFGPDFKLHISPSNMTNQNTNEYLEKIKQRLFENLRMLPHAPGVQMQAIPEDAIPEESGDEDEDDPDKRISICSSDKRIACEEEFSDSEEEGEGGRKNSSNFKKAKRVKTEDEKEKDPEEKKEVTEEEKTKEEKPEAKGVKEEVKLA
# [3] = molecular target: T2, Histone deacetylase 8 (Homo sapiens) (UniProt Q9BY41); experiment: Inhibition of HDAC8 in human Jurkat T cells assessed as increase in H3K27 acetylation at 10 uM after 6 hrs by Western blot analysis; assay type: cell-based
# T2 sequence (whole entry): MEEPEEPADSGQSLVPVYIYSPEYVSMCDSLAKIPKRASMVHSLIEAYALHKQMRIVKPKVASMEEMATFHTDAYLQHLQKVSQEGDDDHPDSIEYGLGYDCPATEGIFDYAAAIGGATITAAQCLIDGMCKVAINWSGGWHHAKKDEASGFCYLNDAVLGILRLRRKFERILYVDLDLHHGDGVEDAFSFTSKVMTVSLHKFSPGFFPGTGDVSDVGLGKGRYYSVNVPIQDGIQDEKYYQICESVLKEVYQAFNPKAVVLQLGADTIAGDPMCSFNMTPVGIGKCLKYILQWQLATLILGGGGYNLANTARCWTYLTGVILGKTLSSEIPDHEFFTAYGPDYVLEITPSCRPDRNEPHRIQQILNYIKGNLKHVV
# [4] = molecular target: T3, Histone deacetylase 11 (Homo sapiens, UniProt Q96DB2); experiment: Inhibition of recombinant human HDAC11 preincubated for 10 mins followed by substrate addition by fluorescence based analysis
# T3 sequence (Q96DB2 whole entry): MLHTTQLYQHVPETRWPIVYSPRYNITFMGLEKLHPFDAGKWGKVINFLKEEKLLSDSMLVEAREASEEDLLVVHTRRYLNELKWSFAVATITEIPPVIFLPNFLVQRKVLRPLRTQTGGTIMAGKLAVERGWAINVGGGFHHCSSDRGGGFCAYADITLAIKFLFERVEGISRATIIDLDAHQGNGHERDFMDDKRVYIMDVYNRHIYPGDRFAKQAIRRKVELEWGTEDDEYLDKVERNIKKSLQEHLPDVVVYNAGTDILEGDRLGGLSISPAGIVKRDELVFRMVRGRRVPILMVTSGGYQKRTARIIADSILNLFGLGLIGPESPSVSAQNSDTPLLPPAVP
# [5] = molecular target: T4, Histone deacetylase 8 (Homo sapiens, UniProt Q9BY41); experiment: Inhibition of recombinant human HDAC8 using (Abz-SRGK(thio-TFA)FFRR-NH2) as substrate preincubated for 5 mins followed by substrate addition by fluorescence based analysis
# T4 sequence (Q9BY41 whole entry): T2 sequence (whole entry)
# [6] = Stability of compound in DMEM/DMSO/acetonitrile at pH 7.4 measured after 6 hrs by HPLC analysis; assay type: physicochemical; settings: read-out: Stability
# [7] = molecular target: T4, Histone deacetylase 8; experiment: Competitive inhibition of human HDAC8 using Abz-SRGGK(STFA)FFRR-NH2 (S) as substrate by Lineweaver-burk plot analysis
# [8] = molecular target: T5, Histone deacetylase 2 (Homo sapiens, UniProt Q92769); experiment: Inhibition of recombinant human HDAC2 using p53 (Ac-RHKK(Acetyl)-AMC) as substrate preincubated for 5 mins followed by substrate addition and measured after 30 mins by fluorescence based analysis
# T5 sequence (Q92769 whole entry): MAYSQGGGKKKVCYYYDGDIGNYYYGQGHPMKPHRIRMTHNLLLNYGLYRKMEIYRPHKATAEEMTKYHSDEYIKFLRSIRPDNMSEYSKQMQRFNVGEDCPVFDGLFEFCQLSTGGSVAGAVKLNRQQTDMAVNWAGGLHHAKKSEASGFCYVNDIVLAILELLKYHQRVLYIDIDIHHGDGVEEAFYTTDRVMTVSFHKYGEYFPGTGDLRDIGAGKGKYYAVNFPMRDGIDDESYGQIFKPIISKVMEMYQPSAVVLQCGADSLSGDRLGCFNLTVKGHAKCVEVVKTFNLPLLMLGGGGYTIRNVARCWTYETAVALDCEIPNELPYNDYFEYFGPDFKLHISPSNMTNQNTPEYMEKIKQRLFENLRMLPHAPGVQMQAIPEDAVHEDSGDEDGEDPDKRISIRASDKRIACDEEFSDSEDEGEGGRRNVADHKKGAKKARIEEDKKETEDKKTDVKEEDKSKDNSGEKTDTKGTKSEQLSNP
# [9] = Stability of compound in DMEM/DMSO/acetonitrile at pH 7.4 measured after 24 hrs by HPLC analysis; assay type: physicochemical; settings: read-out: Stability
# [10] = system: HEK293; experiment: Cytotoxicity against HEK293 cells assessed as reduction in cell viability at 50 uM after 24 hrs by alamar blue assay; assay type: toxicity, cell-based; settings: human, hek293, 24 h
# [11] = molecular target: Histone deacetylase 4 (Homo sapiens, UniProt P56524); experiment: Inhibition of HDAC4 (unknown origin)
# Sequence of Histone deacetylase 4 (P56524 whole entry): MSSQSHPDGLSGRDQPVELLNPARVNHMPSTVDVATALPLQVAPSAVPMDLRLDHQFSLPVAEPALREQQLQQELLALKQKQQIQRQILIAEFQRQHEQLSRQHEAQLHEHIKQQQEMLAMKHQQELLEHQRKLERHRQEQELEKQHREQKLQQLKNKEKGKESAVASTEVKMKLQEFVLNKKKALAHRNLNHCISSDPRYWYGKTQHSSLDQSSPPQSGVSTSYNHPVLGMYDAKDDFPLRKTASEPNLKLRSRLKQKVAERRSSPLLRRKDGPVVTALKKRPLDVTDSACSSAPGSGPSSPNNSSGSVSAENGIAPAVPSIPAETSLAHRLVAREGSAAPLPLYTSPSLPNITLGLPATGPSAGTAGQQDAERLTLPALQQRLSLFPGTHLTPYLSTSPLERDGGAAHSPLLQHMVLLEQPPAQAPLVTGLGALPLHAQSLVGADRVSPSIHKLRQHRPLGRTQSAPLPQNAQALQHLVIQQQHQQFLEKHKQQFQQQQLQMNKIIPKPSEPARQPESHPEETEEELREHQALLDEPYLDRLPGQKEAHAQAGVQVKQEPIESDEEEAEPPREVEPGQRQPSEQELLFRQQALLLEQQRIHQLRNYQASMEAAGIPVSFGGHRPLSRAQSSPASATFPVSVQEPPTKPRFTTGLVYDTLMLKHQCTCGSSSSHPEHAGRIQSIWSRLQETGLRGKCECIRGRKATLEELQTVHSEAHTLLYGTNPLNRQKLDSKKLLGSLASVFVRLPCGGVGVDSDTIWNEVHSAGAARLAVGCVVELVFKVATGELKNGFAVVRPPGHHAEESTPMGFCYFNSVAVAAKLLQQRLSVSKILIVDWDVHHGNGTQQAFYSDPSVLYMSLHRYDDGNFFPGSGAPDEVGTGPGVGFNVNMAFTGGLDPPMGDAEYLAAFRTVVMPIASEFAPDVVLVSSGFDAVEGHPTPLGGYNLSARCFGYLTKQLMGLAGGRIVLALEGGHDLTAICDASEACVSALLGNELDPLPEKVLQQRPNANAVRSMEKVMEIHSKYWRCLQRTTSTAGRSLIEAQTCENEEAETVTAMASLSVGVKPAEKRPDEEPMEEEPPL
# [12] = molecular target: T6, Histone deacetylase 3 (Homo sapiens, UniProt O15379); experiment: Inhibition of recombinant human HDAC3 using p53 (Ac-RHKK(Acetyl)-AMC) as substrate preincubated for 5 mins followed by substrate addition and measured after 30 mins by fluorescence based analysis
# T6 sequence (O15379 whole entry): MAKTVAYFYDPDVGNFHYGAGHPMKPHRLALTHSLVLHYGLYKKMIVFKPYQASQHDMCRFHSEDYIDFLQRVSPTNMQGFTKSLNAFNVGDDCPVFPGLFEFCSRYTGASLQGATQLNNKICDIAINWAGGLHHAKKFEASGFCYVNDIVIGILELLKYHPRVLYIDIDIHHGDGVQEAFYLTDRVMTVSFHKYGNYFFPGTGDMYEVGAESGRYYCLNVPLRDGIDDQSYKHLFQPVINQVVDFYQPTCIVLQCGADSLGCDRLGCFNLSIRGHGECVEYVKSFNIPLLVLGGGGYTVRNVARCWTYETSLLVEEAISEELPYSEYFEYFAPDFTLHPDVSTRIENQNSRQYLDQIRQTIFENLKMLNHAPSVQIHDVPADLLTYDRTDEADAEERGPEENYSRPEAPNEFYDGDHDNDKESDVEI
# [13] = molecular target: T7, Protein deacetylase HDAC6 (Homo sapiens, UniProt Q9UBN7); experiment: Inhibition of recombinant human HDAC6 (unknown origin)
# T7 sequence (Q9UBN7 whole entry): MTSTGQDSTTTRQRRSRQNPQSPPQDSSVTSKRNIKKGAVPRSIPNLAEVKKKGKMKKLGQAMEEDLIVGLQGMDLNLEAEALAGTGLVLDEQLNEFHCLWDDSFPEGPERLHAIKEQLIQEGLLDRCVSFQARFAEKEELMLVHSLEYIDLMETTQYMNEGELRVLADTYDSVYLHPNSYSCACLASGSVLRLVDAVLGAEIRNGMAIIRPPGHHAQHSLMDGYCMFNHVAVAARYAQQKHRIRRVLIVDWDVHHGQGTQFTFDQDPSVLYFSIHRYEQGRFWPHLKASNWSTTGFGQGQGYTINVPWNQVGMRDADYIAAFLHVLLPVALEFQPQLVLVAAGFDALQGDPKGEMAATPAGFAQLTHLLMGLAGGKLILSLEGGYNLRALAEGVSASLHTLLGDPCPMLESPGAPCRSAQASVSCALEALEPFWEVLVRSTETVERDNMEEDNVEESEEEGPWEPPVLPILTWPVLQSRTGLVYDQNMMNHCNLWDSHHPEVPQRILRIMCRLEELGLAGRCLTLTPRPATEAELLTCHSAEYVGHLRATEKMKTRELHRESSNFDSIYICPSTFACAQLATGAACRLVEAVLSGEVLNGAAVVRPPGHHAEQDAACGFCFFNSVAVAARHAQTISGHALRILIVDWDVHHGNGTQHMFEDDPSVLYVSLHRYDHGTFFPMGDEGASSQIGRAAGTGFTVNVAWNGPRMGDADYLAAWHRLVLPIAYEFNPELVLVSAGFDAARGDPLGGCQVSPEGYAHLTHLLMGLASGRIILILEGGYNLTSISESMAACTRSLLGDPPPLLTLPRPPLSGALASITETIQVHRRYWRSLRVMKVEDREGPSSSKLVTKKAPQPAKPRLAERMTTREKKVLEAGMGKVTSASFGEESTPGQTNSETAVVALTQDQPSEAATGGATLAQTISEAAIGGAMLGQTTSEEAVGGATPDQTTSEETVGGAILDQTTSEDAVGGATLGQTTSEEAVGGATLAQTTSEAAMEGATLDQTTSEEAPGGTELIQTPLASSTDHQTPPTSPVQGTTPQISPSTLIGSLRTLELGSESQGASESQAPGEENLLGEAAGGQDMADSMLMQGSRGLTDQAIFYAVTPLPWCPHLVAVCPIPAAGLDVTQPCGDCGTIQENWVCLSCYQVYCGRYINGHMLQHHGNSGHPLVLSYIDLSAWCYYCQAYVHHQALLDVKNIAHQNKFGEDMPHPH
# [14] = Stability of compound in DMEM/DMSO/acetonitrile at pH 7.4 measured after 48 hrs by HPLC analysis; assay type: physicochemical; settings: read-out: Stability
# [15] = Stability of compound in DMEM/DMSO/acetonitrile at pH 7.4 measured after 72 hrs by HPLC analysis; assay type: physicochemical; settings: read-out: Stability
# [16] = molecular target: T2, Histone deacetylase 8 (Homo sapiens); experiment: Reversible binding affinity to recombinant human HDAC8 incubated for 30 mins by jump dilution method
# [17] = molecular target: T6, Histone deacetylase 3; experiment: Inhibition of recombinant human HDAC3 at 10 uM using p53 (Ac-RHKK(Acetyl)-AMC) as substrate preincubated for 5 mins followed by substrate addition and measured after 30 mins by fluorescence based analysis relative to control; settings: time 35.0 min
# [18] = molecular target: T6, Histone deacetylase 3; experiment: Inhibition of recombinant human HDAC3 at 1 uM using p53 (Ac-RHKK(Acetyl)-AMC) as substrate preincubated for 5 mins followed by substrate addition and measured after 30 mins by fluorescence based analysis relative to control; settings: time 35.0 min
# [19] = molecular target: T2, Histone deacetylase 8 (Homo sapiens); experiment: Inhibition of recombinant human HDAC8 at 10 uM using (Abz-SRGK(thio-TFA)FFRR-NH2) as substrate preincubated for 5 mins followed by substrate addition by fluorescence based analysis relative to control
# [20] = molecular target: T2, Histone deacetylase 8 (Homo sapiens); experiment: Inhibition of recombinant human HDAC8 at 1 uM using (Abz-SRGK(thio-TFA)FFRR-NH2) as substrate preincubated for 5 mins followed by substrate addition by fluorescence based analysis relative to control
# [21] = molecular target: T5, Histone deacetylase 2; experiment: Inhibition of recombinant human HDAC2 at 10 uM using p53 (Ac-RHKK(Acetyl)-AMC) as substrate preincubated for 5 mins followed by substrate addition and measured after 30 mins by fluorescence based analysis relative to control; settings: time 35.0 min
# [22] = molecular target: T5, Histone deacetylase 2; experiment: Inhibition of recombinant human HDAC2 at 1 uM using p53 (Ac-RHKK(Acetyl)-AMC) as substrate preincubated for 5 mins followed by substrate addition and measured after 30 mins by fluorescence based analysis relative to control; settings: time 35.0 min
# [23] = molecular target: T1, Histone deacetylase 1; experiment: Inhibition of recombinant human HDAC1 at 10 uM using p53 (Ac-RHKK(Acetyl)-AMC) as substrate preincubated for 5 mins followed by substrate addition and measured after 90 mins by fluorescence based analysis relative to control; settings: time 95.0 min
# [24] = molecular target: T1, Histone deacetylase 1; experiment: Inhibition of recombinant human HDAC1 at 1 uM using p53 (Ac-RHKK(Acetyl)-AMC) as substrate preincubated for 5 mins followed by substrate addition and measured after 90 mins by fluorescence based analysis relative to control; settings: time 95.0 min
# [25] = system: HEK293; experiment: Cytotoxicity against HEK293 cells assessed as reduction in cell viability after 24 hrs by alamar blue assay; assay type: functional, cell-based; settings: Homo sapiens, HEK293, 24 h
structure (smiles),measurement,setting,value
CCCNNC(=O)c1cnc(N2CCN(Cc3c[nH]c4ccccc34)CC2)nc1,remaining at 12 h,[1],83.3%
same,IC50,[2],73 nM
same,inhibition,[3],Active
same,IC50,[4],570 nM
same,IC50,[5],8.2 nM
same,remaining at 6 h,[6],81.7%
same,Ki,[7],5.5 nM
same,IC50,[8],1100 nM
same,remaining at 24 h,[9],82.9%
same,Cell viability,[10],47%
same,IC50,[11],> 20000 nM
same,IC50,[12],30 nM
same,IC50,[13],> 20000 nM
same,remaining at 48 h,[14],27.1%
same,remaining at 72 h,[15],31.1%
same,Activity,[16],Active
CCCNNC(=O)c1cnc(NCCc2ccccc2)nc1,inhibition,[17],87%
same,inhibition,[18],41%
same,inhibition,[19],89%
same,inhibition,[20],51%
same,inhibition,[21],90%
same,inhibition,[22],39%
same,Cell viability,[10],80.5%
same,inhibition,[23],85%
same,inhibition,[24],51%
CCCNNC(=O)c1ccc(-c2ccc(CNC(C)=O)cc2)cc1,remaining at 12 h,[1],97.3%
same,IC50,[2],1600 nM
same,IC50,[4],1800 nM
same,IC50,[5],700 nM
same,remaining at 6 h,[6],98.3%
same,IC50,[8],630 nM
same,remaining at 24 h,[9],94.9%
same,Cell viability,[10],83.9%
same,IC50,[11],990 nM
same,IC50,[12],91 nM
same,IC50,[13],> 20000 nM
same,remaining at 48 h,[14],90.4%
same,remaining at 72 h,[15],86.8%
CCCCCCNNC(=O)c1cccc(NCc2ccccc2)c1,IC50,[2],> 20000 nM
same,IC50,[4],8600 nM
same,IC50,[5],46 nM
same,IC50,[8],> 20000 nM
same,Cell viability,[10],71.2%
same,IC50,[11],> 20000 nM
same,IC50,[12],> 20000 nM
same,IC50,[13],> 20000 nM
CCCCCCNNC(=O)c1cnc(N2CCN(Cc3c[nH]c4ccccc34)CC2)nc1,IC50,[2],170 nM
same,inhibition,[3],Active
same,IC50,[4],41 nM
same,IC50,[5],5.9 nM
same,IC50,[8],310 nM
same,Cell viability,[10],2.18%
same,IC50,[11],> 20000 nM
same,IC50,[12],100 nM
same,IC50,[13],> 20000 nM
CCCCCCNNC(=O)c1ccc(C)c(NCc2ccccc2)c1,inhibition,[17],42%
same,inhibition,[18],9%
same,inhibition,[19],100%
same,inhibition,[20],2%
same,inhibition,[21],26%
same,inhibition,[22],5%
same,Cell viability,[10],41.7%
same,inhibition,[23],35%
same,inhibition,[24],9%
CCCNNC(=O)c1cnc(NCc2ccccc2)nc1,IC50,[2],250 nM
same,IC50,[4],2000 nM
same,IC50,[5],1000 nM
same,IC50,[8],700 nM
same,Cell viability,[10],80.9%
same,IC50,[11],> 20000 nM
same,IC50,[12],43.2 nM
same,IC50,[13],> 20000 nM
COc1cccc2c1C(=O)c1c(O)c3c(c(O)c1C2=O)C[C@@](O)(C(C)=O)C[C@@H]3O[C@H]1C[C@H](N)[C@H](O)[C@H](C)O1 [DAUNORUBICIN],IC50,[25],1200 nM
